The test system of this test is Elongator complex protein 1 (ELP1, also referred to as IKBKAP). The test is described as follows: IKBKAP-HTRF assay (IKBKAP protein in lysates of FD patient-derived fibroblasts). In kind it is cell-based, human. The conditions noted are these: 48 hours incubation, 7-point concentration curve. The essentials:
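Sandwich HTRF with two labelled anti-IKAP antibodies (overnight, 4 °C) measured IKBKAP in lysates of FD patient fibroblasts. Cells were exposed to compound for 48 h at 37 °C (7-point curve, 3.16-fold steps, triplicates). EC2x is the dose doubling IKBKAP versus DMSO control; MFI is sample ΔF divided by vehicle ΔF.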
Turning to `CSC[C@H](N)Cc1sc2c(NCc3ccco3)cc(Cl)nc2c1Cl` [Compound 114, 2-[(2R)-2-amino-3-(methylsulfanyl)propyl]-3,5-dichloro-N-[(furan-2-yl)methyl]thieno[3,2-b]pyridin-7-amine], the “EC2x for IKBKAP protein expression (concentration producing two times the amount of IKBKAP protein vs DMSO vehicle control)” value is “***** (≤0.005 μM is indicated by five stars (*****))” and the “MFI (maximum fold increase in IKBKAP protein abundance relative to the vehicle control)” value is on record as “***** (>4.9 is indicated by five stars (*****))”.
`Cc1c([C@H](N)C(C)C)sc2c(NCc3ccco3)cc(Cl)nc12` [Compound 31, 2-[(1R)-1-amino-2-methylpropyl]-5-chloro-N-[(furan-2-yl)methyl]-3-methylthieno[3,2-b]pyridin-7-amine]: the “EC2x for IKBKAP protein expression (concentration producing two times the amount of IKBKAP protein vs DMSO vehicle control)” value was “* (An EC2x>1 μM is indicated by one star (*))” and the “MFI (maximum fold increase in IKBKAP protein abundance relative to the vehicle control)” value was “* (An MFI≤1.9 is indicated by one star (*))”.
In the case of `Cc1c([C@H](C)N)sc2c(NCc3cccs3)cc(Cl)nc12` [Compound 55, 2-[(1S)-1-aminoethyl]-5-chloro-3-methyl-N-[(thiophen-2-yl)methyl]thieno[3,2-b]pyridin-7-amine], the “EC2x for IKBKAP protein expression (concentration producing two times the amount of IKBKAP protein vs DMSO vehicle control)” value is “**** (between >0.005 μM and ≤0.02 μM is indicated by four stars (****))”; the “MFI (maximum fold increase in IKBKAP protein abundance relative to the vehicle control)” value is “**** (between >3.9 and ≤4.9 is indicated by four stars (****))”.
Consider `CN[C@@H](C)Cc1sc2c(NCc3ccco3)cc(Cl)nc2c1C` [Compound 42, 5-chloro-N-[(furan-2-yl)methyl]-3-methyl-2-[(2S)-2-(methylamino)propyl]thieno[3,2-b]pyridin-7-amine], for which the “EC2x for IKBKAP protein expression (concentration producing two times the amount of IKBKAP protein vs DMSO vehicle control)” value is “**** (between >0.005 μM and ≤0.02 μM is indicated by four stars (****))”; the “MFI (maximum fold increase in IKBKAP protein abundance relative to the vehicle control)” value is “***** (>4.9 is indicated by five stars (*****))”.
For `Cc1c(C[C@@H](N)CC(C)C)sc2c(NCc3nccs3)cc(Cl)nc12` [Compound 68, 2-[(2S)-2-amino-4-methylpentyl]-5-chloro-3-methyl-N-[(1,3-thiazol-2-yl)methyl]thieno[3,2-b]pyridin-7-amine], the “EC2x for IKBKAP protein expression (concentration producing two times the amount of IKBKAP protein vs DMSO vehicle control)” value is “**** (between >0.005 μM and ≤0.02 μM is indicated by four stars (****))”; the “MFI (maximum fold increase in IKBKAP protein abundance relative to the vehicle control)” value is “***** (>4.9 is indicated by five stars (*****))”.
As for `C[C@H](N)Cc1sc2c(NCc3cccs3)cc(Cl)nc2c1C#N` [Compound 110, 2-[(2S)-2-aminopropyl]-5-chloro-7-{[(thiophen-2-yl)methyl]amino}thieno[3,2-b]pyridine-3-carbonitrile], the “EC2x for IKBKAP protein expression (concentration producing two times the amount of IKBKAP protein vs DMSO vehicle control)” value is “***** (≤0.005 μM is indicated by five stars (*****))”; the “MFI (maximum fold increase in IKBKAP protein abundance relative to the vehicle control)” value was “**** (between >3.9 and ≤4.9 is indicated by four stars (****))”.
For `N[C@@H](CF)Cc1sc2c(NCc3cccs3)cc(Cl)nc2c1Br` [Compound 76, 2-[(2R)-2-amino-3-fluoropropyl]-3-bromo-5-chloro-N-[(thiophen-2-yl)methyl]thieno[3,2-b]pyridin-7-amine], the “EC2x for IKBKAP protein expression (concentration producing two times the amount of IKBKAP protein vs DMSO vehicle control)” value is listed as “***** (≤0.005 μM is indicated by five stars (*****))” and the “MFI (maximum fold increase in IKBKAP protein abundance relative to the vehicle control)” value was “***** (>4.9 is indicated by five stars (*****))”.
Turning to `N#Cc1cc(NCc2ccco2)c2scc(C#N)c2n1` [Compound 15, 7-{[(furan-2-yl)methyl]amino}thieno[3,2-b]pyridine-3,5-dicarbonitrile], the “EC2x for IKBKAP protein expression (concentration producing two times the amount of IKBKAP protein vs DMSO vehicle control)” value was “* (An EC2x>1 μM is indicated by one star (*))” and the “MFI (maximum fold increase in IKBKAP protein abundance relative to the vehicle control)” value is “* (An MFI≤1.9 is indicated by one star (*))”.
`C[C@H](N)C(=O)c1sc2c(NCc3ccco3)cc(Cl)nc2c1Br` [Compound 157, (2S)-2-amino-1-(3-bromo-5-chloro-7-{[(furan-2-yl)methyl]amino}thieno[3,2-b]pyridin-2-yl)propan-1-one]: the “EC2x for IKBKAP protein expression (concentration producing two times the amount of IKBKAP protein vs DMSO vehicle control)” value is “*** (between >0.02 μM and ≤0.5 μM is indicated by three stars (***))”; the “MFI (maximum fold increase in IKBKAP protein abundance relative to the vehicle control)” value was “**** (between >3.9 and ≤4.9 is indicated by four stars (****))”.
In the case of `C[C@H](N)C(F)c1sc2c(NCc3cccs3)cc(Cl)nc2c1Br` (stereo partly drawn) [Compound 158, 2-[(2S)-2-amino-1-fluoropropyl]-3-bromo-5-chloro-N-[(thiophen-2-yl)methyl]thieno[3,2-b]pyridin-7-amine], the “EC2x for IKBKAP protein expression (concentration producing two times the amount of IKBKAP protein vs DMSO vehicle control)” value is on record as “***** (≤0.005 μM is indicated by five stars (*****))” and the “MFI (maximum fold increase in IKBKAP protein abundance relative to the vehicle control)” value is on record as “***** (>4.9 is indicated by five stars (*****))”.
Regarding `OCc1cc2nc(Cl)cc(NCc3ccco3)c2s1` [Compound 5, (5-chloro-7-{[(furan-2-yl)methyl]amino}thieno[3,2-b]pyridin-2-yl)methanol], the “EC2x for IKBKAP protein expression (concentration producing two times the amount of IKBKAP protein vs DMSO vehicle control)” value is “* (An EC2x>1 μM is indicated by one star (*))” and the “MFI (maximum fold increase in IKBKAP protein abundance relative to the vehicle control)” value was “* (An MFI≤1.9 is indicated by one star (*))”.
As for `Cc1c(C[C@H](C)N)sc2c(NCc3ccncc3F)cc(Cl)nc12` [Compound 35, 2-[(2S)-2-aminopropyl]-5-chloro-N-[(3-fluoropyridin-4-yl)methyl]-3-methylthieno[3,2-b]pyridin-7-amine], the “EC2x for IKBKAP protein expression (concentration producing two times the amount of IKBKAP protein vs DMSO vehicle control)” value is “***** (≤0.005 μM is indicated by five stars (*****))” and the “MFI (maximum fold increase in IKBKAP protein abundance relative to the vehicle control)” value was “***** (>4.9 is indicated by five stars (*****))”.
Take `C[S+]([O-])C[C@H](N)Cc1sc2c(NCc3ccco3)cc(Cl)nc2c1Cl` (stereo partly drawn) [Compound 167, [(2R)-2-amino-3-(3,5-dichloro-7-{[(furan-2-yl)methyl]amino}thieno[3,2-b]pyridin-2-yl)propyl](methyl)sulfaniumolate]: the “EC2x for IKBKAP protein expression (concentration producing two times the amount of IKBKAP protein vs DMSO vehicle control)” value is “***** (≤0.005 μM is indicated by five stars (*****))” and the “MFI (maximum fold increase in IKBKAP protein abundance relative to the vehicle control)” value is reported as “***** (>4.9 is indicated by five stars (*****))”.
As for `C[C@H](N)Cc1sc2c(NCc3nccs3)cc(Cl)nc2c1C1CC1` [Compound 96, 2-[(2S)-2-aminopropyl]-5-chloro-3-cyclopropyl-N-[(1,3-thiazol-2-yl)methyl]thieno[3,2-b]pyridin-7-amine], the “EC2x for IKBKAP protein expression (concentration producing two times the amount of IKBKAP protein vs DMSO vehicle control)” value was “**** (between >0.005 μM and ≤0.02 μM is indicated by four stars (****))”; the “MFI (maximum fold increase in IKBKAP protein abundance relative to the vehicle control)” value is recorded as “***** (>4.9 is indicated by five stars (*****))”.
Take `C[C@H](N)Cc1sc2c(NCc3cccs3)cc(Cl)nc2c1Br` [Compound 53, 2-[(2S)-2-aminopropyl]-3-bromo-5-chloro-N-[(thiophen-2-yl)methyl]thieno[3,2-b]pyridin-7-amine]: the “EC2x for IKBKAP protein expression (concentration producing two times the amount of IKBKAP protein vs DMSO vehicle control)” value was “***** (≤0.005 μM is indicated by five stars (*****))” and the “MFI (maximum fold increase in IKBKAP protein abundance relative to the vehicle control)” value was “***** (>4.9 is indicated by five stars (*****))”.

For the origin of these results see patent US12384797B2, “Thioeno[3,2-b] pyridin-7-amine compounds for treating familial dysautonomia” (PTC THERAPEUTICS, INC., priority 2019, dated 2025).
